Experimental data published in the NIST ThermoML archive (doi:10.1021/je060032n).

How the values were obtained:
[1] = xn = mol fraction of the nth substance listed; conditions: 101 kPa, Liquid, x2 = 0; for viscosity: Capillary tube (Ostwald / Ubbelohde) method
[2] = refractive index (Na D-line) (dimensionless); xn = mol fraction of the nth substance listed; conditions: 101 kPa, Liquid, Standard Abbe refractometry, x2 = 0
[3] = 101 kPa, Liquid; for viscosity: Capillary tube (Ostwald / Ubbelohde) method
[4] = refractive index (Na D-line) (dimensionless); conditions: 101.33 kPa, Liquid, Standard Abbe refractometry

O [water] + NCCNCCO
Conditions	mass density, [1] [kg/m3]	refractive index, [2]	viscosity, [1] [mPa·s]
298.15 K	–	1.33258	0.882
303.15 K	–	1.33202	0.804
313.15 K	–	1.33067	0.659
323.15 K	988.03	1.32909	0.551
333.15 K	983.19	1.3273	0.47
343.15 K	977.75	–	0.407

NCCNCCO [N-(2-aminoethyl)ethanolamine]
Conditions	mass density, [3] [kg/m3]	refractive index, [4]	viscosity, [3] [mPa·s]
298.15 K	1025.28	1.48454	98.6
303.15 K	1021.53	1.48269	70.5
313.15 K	1014.02	1.47884	39.4
323.15 K	1006.44	1.47516	23.4
333.15 K	998.83	1.47128	14.8
343.15 K	991.15	–	10.1
